Assay [1] deals with CDK8 (phosphorylation of STAT1 at serine 727 in A549 cells). Briefly: Cell based Phospho-STAT1 assay (IFNγ-stimulated A549 cells, AlphaLISA). The conditions noted are these: Homo sapiens, A549, A549 cells, phospho-STAT1 after IFNγ stimulation. The procedure, abridged: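 A549 cells given serial compound dilutions for 1 h at 37 °C, then stimulated with IFNγ at 10 ng/mL final for 30 min. Lysate STAT1 Ser727 phosphorylation measured by AlphaLISA; % inhibition vs stimulated/unstimulated DMSO controls, IC50 by nonlinear regression.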
On the technique in general: Bead proximity is the source of the signal in Alpha formats.

The test system of assay [2] is CDK8 (TCF/LEF luciferase reporter in HCT116 cells). Briefly: Cell based TCF/LEF reporter assay (HCT116+TCF/LEF luciferase). Particulars: Homo sapiens, HCT-116, 24 h. The gist of the method:
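Luciferase readout was corrected for viability (CellTiter-Fluor) and scaled between DMSO high and 10 uM CCT251545 low controls, giving IC50 by nonlinear regression. Compounds, serially diluted, were incubated 24 h at 37 °C on HCT116 clones stably expressing a TCF/LEF-driven luciferase reporter.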
A general note: A reporter such as luciferase makes a cellular process visible.

SMILES strings stand for the structures.

Our source for the IC50 values is patent US10703757B2, “Compounds and methods for CDK8 modulation and indications therefor” (Plexxikon Inc., priority 2016, dated 2020).

In general, IC50 refers to the concentration that inhibits the measured activity by half. A higher IC50 goes with weaker potency.

Consider `Cc1cncc(-c2ccc(-c3cnn4cccc(C#CC(C)(C)O)c34)cc2)c1` [Compound P-0231, 2-methyl-4-(3-(4-(5-methylpyridin-3-yl)phenyl)pyrazolo[1,5-a]pyridin-4-yl)but-3-yn-2-ol], for which the IC50 in assay [1] and in assay [2] was 100 to 1000 nM in each case.

With `N#CC1CC=C(c2cccn3ncc(-c4ccc(N5CCOCC5)c(F)c4)c23)CC1` (centres unmarked) [Compound P-0125, 4-(3-(3-fluoro-4-morpholinophenyl)pyrazolo[1,5-a]pyridin-4-yl)cyclohex-3-ene-1-carbonitrile], the IC50 in assay [1] and in assay [2] was 0.1 to 100 nM throughout.

For the compound `COc1ccc2cc(-c3cnn4cccc(C#CC(C)(C)O)c34)ccc2n1` [Compound P-0282, 4-(3-(2-methoxyquinolin-6-yl)pyrazolo[1,5-a]pyridin-4-yl)-2-methylbut-3-yn-2-ol], the IC50 in assay [1] and in assay [2] was 100 to 1000 nM throughout.

Regarding `CS(=O)(=O)Cn1cc(-c2ccc(-c3cnn4ccnc(C5=CCC(C#N)CC5)c34)cc2)cn1` (centres unmarked) [Compound P-0028, 4-(3-(4-(1-((methylsulfonyl)methyl)-1H-pyrazol-4-yl)phenyl)pyrazolo[1,5-a]pyrazin-4-yl)cyclohex-3-ene-1-carbonitrile], the IC50 in assay [1] and in assay [2] was 0.1 to 100 nM in each case.

As for `N#CC1CC=C(c2c(-c3ccc(-n4ccnn4)cc3)cnc3[nH]ccc23)CC1` (centres unmarked) [Compound P-0201, 4-(5-(4-(1H-1,2,3-triazol-1-yl)phenyl)-1H-pyrrolo[2,3-b]pyridin-4-yl)cyclohex-3-ene-1-carbonitrile], the results for the half-maximal inhibitory concentration (IC50) in assay [1] and in assay [2] were 100 to 1000 nM and 0.1 to 100 nM, respectively.

For the compound `N#CC1CCN(c2cccn3ncc(-c4ccc(OCC(O)CN5CCOCC5)cc4)c23)CC1` (centres unmarked) [Compound P-0262, 1-(3-(4-(2-hydroxy-3-morpholino-propoxy)phenyl)pyrazolo[1,5-a]pyridin-4-yl)piperidine-4-carbonitrile], the IC50 in assay [1] and in assay [2] was 0.1 to 100 nM throughout.

In the case of `COc1ccc2ccc(-c3cnn4ccnc(C5=CCC(C#N)CC5)c34)cc2n1` (centres unmarked) [Compound P-0165, 4-(3-(2-methoxyquinolin-7-yl)pyrazolo[1,5-a]pyrazin-4-yl)cyclohex-3-ene-1-carbonitrile], the IC50 in assay [1] was 100 to 1000 nM; in assay [2], 1000 to 10000 nM.

Consider `Cn1ccc(-c2ccc(-c3cnn4cccc(C#CC(C)(C)O)c34)cc2)n1` [Compound P-0226, 2-methyl-4-(3-(4-(1-methyl-1H-pyrazol-3-yl)phenyl)pyrazolo[1,5-a]pyridin-4-yl)but-3-yn-2-ol], for which the half-maximal inhibitory concentration (IC50) in assay [1] and in assay [2] was 0.1 to 100 nM in each case.

As to `CS(=O)(=O)Nc1ccc(-c2cnn3ccnc(C4=CCC(C#N)CC4)c23)cc1` (centres unmarked) [Compound P-0045, N-(4-(4-(4-cyanocyclohex-1-en-1-yl)pyrazolo[1,5-a]pyrazin-3-yl)phenyl)methanesulfonamide], the values for the IC50 in assay [1] and in assay [2] were 100 to 1000 nM and 0.1 to 100 nM, respectively.

On to `N#CC1CC=C(c2nccn3ncc(-c4ccc5c(cnn5C(F)F)c4)c23)CC1` (centres unmarked) [Compound P-0114, 4-(3-(1-(difluoromethyl)-1H-indazol-5-yl)pyrazolo[1,5-a]pyrazin-4-yl)cyclohex-3-ene-1-carbonitrile], for which the IC50 in assay [1] and in assay [2] was 0.1 to 100 nM throughout.

Turning to `N#CC1CC=C(c2nccn3ncc(-c4ccc(OCc5ccccc5)c(F)c4)c23)CC1` (centres unmarked) [Compound P-0039, 4-(3-(4-(benzyloxy)-3-fluorophenyl)pyrazolo[1,5-a]pyrazin-4-yl)cyclohex-3-ene-1-carbonitrile], the half-maximal inhibitory concentration (IC50) in assay [1] and in assay [2] was 100 to 1000 nM in each case.

On to `N#CC1CCC(c2nccn3ncc(-c4ccc(-c5cnn(CC6CC6)c5)cc4)c23)CC1` (centres unmarked) [Compound P-0020, (1s,4s)-4-(3-(4-(1-(cyclopropylmethyl)-1H-pyrazol-4-yl)phenyl)pyrazolo[1,5-a]pyrazin-4-yl)cyclohexane-1-carbonitrile], for which the IC50 in assay [1] and in assay [2] was 0.1 to 100 nM in each case.

Take `CC(C)(C#Cc1cccn2ncc(-c3ccc4c(cnn4C(F)F)c3)c12)C(N)=O` [Compound P-0068, 4-(3-(1-(difluoromethyl)-1H-indazol-5-yl)pyrazolo[1,5-a]pyridin-4-yl)-2,2-dimethylbut-3-ynamide]: the IC50 in assay [1] and in assay [2] was 0.1 to 100 nM in each case.

In the case of `Cn1cc(-c2ccc(-c3cnn4ccnc(C#CC(C)(C)O)c34)cc2)cn1` [Compound P-0274, 2-methyl-4-(3-(4-(1-methyl-1H-pyrazol-4-yl)phenyl)pyrazolo[1,5-a]pyrazin-4-yl)but-3-yn-2-ol], the IC50 in assay [1] and in assay [2] was 0.1 to 100 nM in each case.

As to `Cn1cc(-c2ccc(-c3cnn4cccc(C#CC(C)(C)C(N)=O)c34)cc2)cn1` [Compound P-0295, 2,2-dimethyl-4-(3-(4-(1-methyl-1H-pyrazol-4-yl)phenyl)pyrazolo[1,5-a]pyridin-4-yl)but-3-ynamide], the IC50 in assay [1] and in assay [2] was 0.1 to 100 nM each time.

Regarding `Cc1noc(-c2ccc(-c3cnn4cccc(N5CCC(C#N)CC5)c34)cc2)n1` [Compound P-0366, 1-(3-(4-(3-methyl-1,2,4-oxadiazol-5-yl)phenyl)pyrazolo[1,5-a]pyridin-4-yl)piperidine-4-carbonitrile], the IC50 in assay [1] and in assay [2] was 0.1 to 100 nM throughout.

With `NC(=O)C1CC=C(c2cccn3ncc(-c4ccc(-n5ccnn5)cc4)c23)CC1` (centres unmarked) [Compound P-0196, 4-(3-(4-(1H-1,2,3-triazol-1-yl)phenyl)pyrazolo[1,5-a]pyridin-4-yl)cyclohex-3-ene-1-carboxamide], the figures for the IC50 in assay [1] and in assay [2] were 0.1 to 100 nM and 100 to 1000 nM, respectively.

As to `Cn1cc(C#Cc2cnc3cccc(N4CCC5(CC4)CNC(=O)O5)n23)cn1` [Compound P-0277, 8-(3-((1-methyl-1H-pyrazol-4-yl)ethynyl)imidazo[1,2-a]pyridin-5-yl)-1-oxa-3,8-diazaspiro[4.5]decan-2-one], the IC50 in assay [1] and in assay [2] was 1000 to 10000 nM in each case.

As for `Cc1c(-c2ccc(-c3cnn4cccc(C#CC(C)(C)O)c34)cc2)cnn1C` [Compound P-0230, 4-(3-(4-(1,5-dimethyl-1H-pyrazol-4-yl)phenyl)pyrazolo[1,5-a]pyridin-4-yl)-2-methylbut-3-yn-2-ol], the IC50 in assay [1] and in assay [2] was 0.1 to 100 nM in each case.

As to `N#CC1CC=C(c2cccn3ncc(-c4ccc(-n5cccn5)cc4)c23)CC1` (centres unmarked) [Compound P-0225, 4-(3-(4-(1H-pyrazol-1-yl)phenyl)pyrazolo[1,5-a]pyridin-4-yl)cyclohex-3-ene-1-carbonitrile], the IC50 in assay [1] and in assay [2] was 0.1 to 100 nM each time.

`Cc1ccc2cc(-c3cnn4cccc(N5CCC6(CCNC6=O)CC5)c34)ccc2n1` [Compound P-0168, 8-(3-(2-methylquinolin-6-yl)pyrazolo[1,5-a]pyridin-4-yl)-2,8-diazaspiro[4.5]decan-1-one]: the IC50 in assay [1] and in assay [2] was 0.1 to 100 nM each time.

In the case of `CS(=O)(=O)C1CCC(Oc2cccc3ncc(-c4ccc(-c5cnn(C(F)F)c5)cc4)n23)C1` (centres unmarked) [Compound P-0321, 3-(4-(1-(difluoromethyl)-1H-pyrazol-4-yl)phenyl)-5-((3-(methylsulfonyl)cyclopentyl)oxy) imidazo[1,2-a]pyridine], the IC50 in assay [1] and in assay [2] was 1000 to 10000 nM each time.
